Laboratory results: US5939437A, “CCK and gastrin receptor ligands” (James Black Foundation Limited, priority 1994, dated 1999)

Experiments:
[1] = molecular target: T1, CCKA (Cavia porcellus, UniProt Q63931); assay: CCKA binding assay (guinea-pig pancreas membranes); conditions: [125I]-CCK8(S) 200 pM, 0.375 μM PD134,308 present, 150 minutes at 21±3° C., read-out: CCKA pKi (converted)
T1 construct: The pancreatata were homogenised in 40 ml ice-cold HEPES buffer; from tissue; host or cells: pancreas membranes of male Dunkin Hartley guinea-pigs
T1 sequence (Q63931 1-430): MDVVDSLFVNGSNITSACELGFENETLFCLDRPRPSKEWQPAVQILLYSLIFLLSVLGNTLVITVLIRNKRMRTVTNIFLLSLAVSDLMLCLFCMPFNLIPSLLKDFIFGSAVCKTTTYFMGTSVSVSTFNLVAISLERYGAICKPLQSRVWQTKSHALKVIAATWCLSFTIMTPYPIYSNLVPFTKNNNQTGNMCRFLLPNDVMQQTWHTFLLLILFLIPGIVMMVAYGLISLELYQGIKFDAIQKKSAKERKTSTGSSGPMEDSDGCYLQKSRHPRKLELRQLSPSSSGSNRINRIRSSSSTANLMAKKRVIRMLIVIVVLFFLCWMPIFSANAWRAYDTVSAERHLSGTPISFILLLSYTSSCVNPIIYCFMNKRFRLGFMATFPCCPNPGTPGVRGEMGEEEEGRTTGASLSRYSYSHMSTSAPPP
Protocol: The compounds of the examples were also tested in a CCKA binding assay as follows:
The pancreatata were removed from male guinea-pigs (200-300 g; Dunkin Hartley) and placed in ice-cold HEPES buffer (pH 7.2@21 ±3° C.). The pancreatata were homogenised in 40 ml ice-cold HEPES buffer using a polytron (Brinkman, PT10, setting 10) 4×1 second. The homogenate was centrifuged at 39,800 g for 15 min at 4° C. The supernatant was discarded and the pellet re-suspended using a Teflon-in-glass homogeniser in 20 volumes of fresh buffer and re-centrifuged as above. The final pellet was re-suspended using a Teflon-in-glass homogeniser to a tissue concentration of 1 mg.ml^-1 (original wet weight), and filtered through 500 μm pore-size Nytex mesh.
The membranes (400 μl; containing 0.375 μM PD134,308) are incubated for 150 minutes at 21±3° C. in a final volume of 0.5 ml with HEPES buffer containing [^125 I]-CCK8 (S) (50 μl; 200 pM) and competing compound. Total and non-specific binding of [^125 I]-CCK^8 (S) are defined using 50 μl of buffer and 50 μl of 100 nM L-364,718respectively. The assay is terminated by rapid filtration through pre-soaked Whatman GF/B filters using a Brandell Cell Harvester. The filters were washed (3×3 ml) with ice-cold 50 mM Tris HCl (pH 7.4 at 4° C. and bound radioactivity is determined by counting (1 min) in a gamma counter.

[2] = molecular target: T2, CCKB (Mus musculus, UniProt P56481); assay: radioligand binding assay at the CCKB (CCK8 [sic]) receptor in mouse cortical membranes; conditions: [125I]-CCK8S 200 pM, 150 min at 21±3° C., read-out: CCKB pKi (converted)
T2 construct: The cortex was dissected, weighed and homogenised in 40 ml ice-cold buffer; from tissue; host or cells: cerebral cortex membranes of male CD1 mice (Charles River)
T2 sequence (P56481 1-453): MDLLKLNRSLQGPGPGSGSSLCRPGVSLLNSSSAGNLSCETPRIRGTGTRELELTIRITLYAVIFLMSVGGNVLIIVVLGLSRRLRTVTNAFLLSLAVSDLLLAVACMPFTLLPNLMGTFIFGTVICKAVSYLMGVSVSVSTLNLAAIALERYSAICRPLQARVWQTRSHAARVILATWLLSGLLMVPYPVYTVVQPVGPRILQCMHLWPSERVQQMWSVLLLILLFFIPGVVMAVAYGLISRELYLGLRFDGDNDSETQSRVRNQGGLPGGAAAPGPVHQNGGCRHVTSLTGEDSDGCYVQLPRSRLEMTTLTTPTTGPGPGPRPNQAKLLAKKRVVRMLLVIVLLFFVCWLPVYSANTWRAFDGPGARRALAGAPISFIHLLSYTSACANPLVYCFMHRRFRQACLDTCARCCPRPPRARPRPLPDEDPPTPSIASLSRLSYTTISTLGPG
Protocol: The compounds of the examples were tested for binding at the CCK8 receptor in mouse cortical membranes by means of a radioligand binding assay. The procedure was as follows: The whole brains from male mice (CD1 22-25 g; Charles River) were removed and placed in ice-cold buffer (pH7.2@21±3° C.) of the following composition (mM); 10 HEPES, 130 NaCl, 4.7 KCl, 5 MgCl2, 1 EDTA and containing 0.25 g.1^-1 bacitracin. The cortex was dissected, weighed and homogenised in 40 ml ice-cold buffer using a Teflon-in-glass homogeniser. The homogenate was centrifuged at 39,800 g for 20 min at 4° C., the supernatant discarded and the pellet resuspended by homogenisation in fresh buffer. The homogenate was recentrifuged (39,800 g; 20 min@4° C.) and the final pellet was resuspended in HEPES buffer to give a tissue concentration of 2 mg.ml^-1 (original wet weight). The membranes ([…]) were incubated for 150 min at 21±3° C. in a final volume of 0.5 ml with HEPES buffer containing [^25 I]-CCK8S (0.05 ml; 200 pM NEN 2200 Ci.mmol^-1) and competing compound. Total and non-specific binding of [^125 I]-CCK8S were defined using 0.05 ml of buffer and 0.05 ml of […] L-365,260, respectively. The assay was terminated by rapid filtration through pre-soaked Whatman GF/B 35 filters using a Brandell Cell harvester. The filters were washed (3×3 ml) with ice-cold 5 mM Tris-HCl (pH7.4@4° C.) and bound radioactivity determined by counting (1 min.) in a gamma-counter.

[3] = molecular target: T3, Gastrin (Rattus norvegicus, UniProt P30553); assay: gastrin antagonist activity in an immature rat stomach assay (pentagastrin-stimulated acid secretion, isolated stomach); conditions: cumulative pentagastrin dose-response curves, 60 min after drug, read-out: Gastrin pKB (converted)
T3 construct: The stomach was excised and flushed with ca. 1 ml unbuffered physiological saline solution; from tissue; host or cells: isolated whole stomach of immature rats (33-50 g, ca. 21 days old)
T3 sequence (P30553 1-452): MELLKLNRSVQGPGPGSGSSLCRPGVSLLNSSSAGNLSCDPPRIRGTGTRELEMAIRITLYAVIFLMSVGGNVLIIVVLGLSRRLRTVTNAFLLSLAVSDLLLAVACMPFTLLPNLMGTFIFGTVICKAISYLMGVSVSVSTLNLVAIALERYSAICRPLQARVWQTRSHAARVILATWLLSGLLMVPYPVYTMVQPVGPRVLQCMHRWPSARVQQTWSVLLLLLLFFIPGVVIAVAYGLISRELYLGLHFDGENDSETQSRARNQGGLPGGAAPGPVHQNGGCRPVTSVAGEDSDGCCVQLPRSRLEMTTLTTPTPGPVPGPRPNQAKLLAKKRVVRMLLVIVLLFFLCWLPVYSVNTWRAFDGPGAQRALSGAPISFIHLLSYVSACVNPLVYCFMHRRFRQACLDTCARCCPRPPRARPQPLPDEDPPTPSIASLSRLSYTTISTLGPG
Protocol: The compounds of the examples were also tested for gastrin antagonist activity in an immature rat stomach assay. The procedure was follows:
The oesophagus of immature rats (33-50 g, ca. 21 days old) was ligated at the level of the cardiac sphincter and the duodenal sphincter was cannulated. The stomach was excised and flushed with ca. 1 ml unbuffered physiological saline solution. The fundus was punctured and cannulated. A further 4-5 ml of unbuffered solution was flushed through the stomach to ensure the preparation was not leaking. The stomach was lowered into a jacketed organ bath containing 40 ml of buffered solution containing 3×10^-8 M5methylfurmethide, maintained at 37° and gassed vigorously with 95% O2 /5% CO2. The stomach was continuously perfused at a rate of 1 ml min^-1 with unbuffered solution gassed with 100% O2 with the perfusate passing over an internally referenced pH-electrode fixed 12 cm above the stomach.
After 120 min of stabilisation the drugs were added directly to the serosal solution in the organ bath and after a further 60 min cumulative pentagastrin dose-response curves were started. Changes in acid secretion were monitored and the curves analysed according to Black et. al., Br. J. Pharmacol., 1985, 86, 581.

SMILES | Ki [1] | Ki [2] | Kb [3]
O=C(O)c1cc(NC(=O)[C@H](Cc2ccccc2)NC(=O)c2cc([N+](=O)[O-])ccc2C(=O)NCC23CC4CC(CC(C4)C2)C3)cc(C(=O)O)c1 [Example 15, 1-(1S-(3,5-dicarboxyphenylamino-carbonyl)-2-phenylethylaminocarbonyl)-2-(l-adamantanemethyl-aminocarbonyl)-5-nitrobenzene] | 1000 nM | 1000 nM | 316 nM
Nc1ccc(C(=O)N[C@@H](Cc2ccccc2)C(=O)Nc2cc(C(=O)O)cc(C(=O)O)c2)c(C(=O)NCC23CC4CC(CC(C4)C2)C3)c1 [Example 16, 1-(1S-(3,5-dicarboxyphenylamino-carbonyl)-2-phenylethylaminocarbonyl)-2-(1-adamantanemethyl-25 aminocarbonyl)-4-aminobenzene] | 3980 nM | 200 nM | 63.1 nM
Nc1ccc(C(=O)NCC23CC4CC(CC(C4)C2)C3)c(C(=O)N[C@@H](Cc2ccccc2)C(=O)Nc2cc(C(=O)O)cc(C(=O)O)c2)c1 [Example 17, 1-(1S-(3,5-dicarboxyphenylamino-carbonyl)-2-phenylethylaminocarbonyl)-2-(1-adamantanemethyl-aminocarbonyl)-5-aminobenzene] | 12600 nM | 50.1 nM | 20 nM
COc1ccc(C(=O)NCC23CC4CC(CC(C4)C2)C3)c(C(=O)N[C@@H](Cc2ccccc2)C(=O)Nc2cc(C(=O)O)cc(C(=O)O)c2)c1 [Example 19, 1-(1S-(3,5-dicarboxyphenylamino-carbonyl)-2-phenylethylaminocarbonyl)-2-(1-adamantanemethyl-aminocarbonyl)-5-methoxybenzene] | 2000 nM | 158 nM | 12.6 nM
O=C(O)c1cc(NC(=O)[C@H](Cc2ccccc2)NC(=O)c2cccc3c2C(=O)N(CC24CC5CC(CC(C5)C2)C4)C3)cc(C(=O)O)c1 [Example 26, 7-(1S-(3,5-dicarboxyphenylamino-carbonyl)-2-phenylethylaminocarbonyl)-2-(1-adamantanemethyl)indol-1-one] | 3160 nM | 100 nM | 63.1 nM
